Here are results for three molecules from patent publication US10835507B2, “Treatment of muscular disorders with combinations of RXR agonists and thyroid hormones” (Io Therapeutics, Inc., priority 2016, dated 2020).

In series [1] the test system is spontaneously hypertensive rats (SHRs). Description: Cardiac hypertrophy in spontaneously hypertensive rats. Format: in vivo, rat. Conditions: present-tense example; for inhibition of the increase in cardiac mass and wall thickness: SHRs at 12 weeks of age, 10 mg to 100 mg/kg. As to the method:
Four weeks old SHRs and control rats are randomized and put into groups of 5-10 rats/group. […] Transthoratic echocardiographs are performed to determine cardiac weights and measurements.
The animals are sacrificed at 16 weeks of age to determine cardiac hypertrophy. Hypertrophy is determined by the animal's left ventricle weight to body weight ratio. The myocyte cross-sectional area is also determined. Approximately 10 mg to about 30 mg of the animal's left ventricle is homogenized and subject to sodium dodecyl sulfate polyacrylamide gel electrophoresis (SDS-PAGE) and immunoblot analysis.

In series [2] the test system is mouse oligodendrocyte progenitor cells (OPCs). Description: Mouse oligodendrocyte progenitor cell differentiation, 5-day treatment, Example 5. Format: cell-based. The conditions noted are these: 96-well plates, plp-EGFP mouse OPCs. As to the method: OPCs were derived from plp-EGFP expressing mice.
Therapeutic agents were tested in 96-well plates (6 wells per concentration). […] All media contained 0.1% DMSO. At the end of the 5-day treatment, cells were imaged on Cellomics in two channels and algorithms were used to count nuclei and EGFP+ oligodendrocytes.

The subject of series [3] is oligodendrocyte precursor cells (OPCs). The series can be described thus: Oligodendrocyte precursor cell differentiation (EGFP expression), Example 4. Format: cell-based, mouse.
Source text: OPCs were generated from a neurosphere culture of E14.5 PLP-EGFP (on C57BL/6J background) mouse brains. […] The EGFP expressing cells were quantified with Cellomics Neuronal Profiling Algorithm.
The EGFP expressing cells in controls and all compounds were quantified with Cellomics Neuronal Profiling Algorithm.
Series [4] concerns embryonic stem cells (ES). Description: Myogenic conversion of embryonic stem cells (embryoid bodies). Format: cell-based. The conditions noted are these: embryoid bodies without DMSO, approximately 1 nM to about 1 μM; present-tense example. An excerpt:
To test the potency of RXRs on myogenic conversion of embryonic stem cells (ES), embryoid bodies are formed without DMSO. […] Myoblasts are examined through microscopy and the number of myocytes counted.

The next series concerns the target T1, RXRα (Homo sapiens, UniProt P19793).
T1 sequence (P19793 1-462): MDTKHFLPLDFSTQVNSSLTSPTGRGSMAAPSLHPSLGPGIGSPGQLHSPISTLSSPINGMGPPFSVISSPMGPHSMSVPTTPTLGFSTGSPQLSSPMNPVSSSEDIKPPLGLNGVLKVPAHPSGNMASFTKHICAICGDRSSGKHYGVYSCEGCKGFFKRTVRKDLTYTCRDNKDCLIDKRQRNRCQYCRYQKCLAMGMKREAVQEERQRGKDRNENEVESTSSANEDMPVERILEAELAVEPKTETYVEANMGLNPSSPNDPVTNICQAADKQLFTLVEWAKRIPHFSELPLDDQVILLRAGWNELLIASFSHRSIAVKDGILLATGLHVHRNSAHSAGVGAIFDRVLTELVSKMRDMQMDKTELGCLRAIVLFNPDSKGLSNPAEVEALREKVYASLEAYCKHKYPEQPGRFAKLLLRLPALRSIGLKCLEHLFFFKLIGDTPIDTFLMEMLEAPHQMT
Conditions: RXR receptors vs RAR receptors. The procedure:
To determine whether a RXR agonist can mediate its effects via RXRα receptor homodimers, RXRβ receptor homodimers, RXRγ receptor homodimers, or any combination thereof, or the corresponding RAR/RXR heterodimers, receptor-mediated transactivation assays were performed. For transactivation assays assessing RXR homodimer signaling, CV-1 cells were transfected with 1) an expression construct including a full length RXRα, RXRβ, or RXRγ; and 2) a rCRBPII/RXRE-tk-Luc reporter construct that included RXR homodimer-specific RXRE/DR1 responsive element linked to a luciferase gene. For transactivation assays assessing RAR/RXR heterodimer signaling, CV-1 cells were transfected with 1) an expression construct comprising a fusion protein including an estrogen receptor (ER) DNA binding domain linked to the ligand binding domain of RARα, RARβ, or RARγ and 2) a ERE-tk-Luc reporter construct that included an estrogen receptor responsive element linked to a luciferase gene. […] Data are mean values±SE from five independent experiments.

Series [5] in a line: Terminal T4 levels, mortality and body weight in the demyelination study, Example 7. Conditions: 6 weeks treatment during CR.
Source text: (§1) Animals (8 week-old male C57BL/6J mice) were subjected to cuprizone diet plus rapamycin injections (CR) for 6 weeks to induce demyelination. […] All animals were sacrificed after 6 weeks of CR to evaluate axonal integrity and microglial/macrophage activity in the white matter (corpus callosum, CC).
A total of 50 animals were included in the study, where 43 animals received CR demyelination for 6 weeks. During demyelination, a subset (n=7) of animals were kept on normal diet to serve as naïve age-matched controls.
In series [6] the test system is murine skeletal muscle myoblasts and primary myoblasts. The series can be described thus: Myoblast differentiation. Format: cell-based. The conditions noted are these: about 10 nM to about 1 μM; present-tense example. The procedure: In order to determine and compare the efficacy of IRX4204 and IRX4204+thyroxine in myoblast differentiation, murine skeletal muscle myoblasts and primary myoblasts are cultured. Myogenic differentiation is initiated when cells are approximately 60-80% confluent, with the cells being differentiated into cell types, such as myotubes.

The test system of the next series is Pluripotent P19 cells. Description: Myogenic differentiation of pluripotent P19 cells. The class given is cell-based. The conditions noted are these: approximately 1 nM to about 1 μM, 1% DMSO; present-tense example. As to the method:
Cells fixed to cover slips are then incubated with primary antibodies for skeletal muscle markers and then labeled with secondary antibodies. Microscopy analysis is performed and the number of skeletal myocytes quantified.

The test system of series [7] is mouse model of non-immune mediated demyelination. Description: 6-week cuprizone plus rapamycin demyelination model, corpus callosum histology, Example 7. The conditions noted are these: IRX4204 10 mg/kg PO, T4 20 ng/g SQ, daily for 6 weeks during CR. The class given is in vivo, C57BL/6J mice.
Source text: as §1
The floating brain sections were immunostained with SMI-32 to visualize and quantify axonal ovoids in the CC.
The floating brain sections were immunostained with lba-1 to visualize and quantify microglia/macrophages in CC.

Entries after “also recorded” stand apart in the source; their conditions may differ.

On to `C=C(c1ccc(C(=O)O)cc1)c1cc2c(cc1C)C(C)(C)CCC2(C)C` [bexarotene, 4-[1-(3,5,5,8,8-pentamethyl-6,7-dihydronaphthalen-2-yl)ethenyl]benzoic acid, reference compound], for which the “inhibition of the increase in cardiac mass and wall thickness” value in series [1] is “inhibition of the increase in cardiac mass and wall thickness as compared to vehicle-only treated SHRs”. The “ratio of left ventricle weight to body weight” value in series [1] (SHRs at 16 weeks of age) was “significantly lower ratio of left ventricle weight to body weight as compared to vehicle-only treated SHRs”.
Regarding `N[C@@H](Cc1cc(I)c(Oc2ccc(O)c(I)c2)c(I)c1)C(=O)O` [Compound T3, triiodothyronine, reference compound], the “production of EGFP+ oligodendrocytes” value in series [2] is given as “clear dose-responses in oligodendrocyte production”.
With `CC(/C=C/[C@@H]1C[C@]1(C)c1ccc2c(c1)C(C)(C)CCC2(C)C)=C\C(=O)O` [IRX4204, 3,7-dimethyl-6(S),7(S)-methano,7-[1,1,4,4-tetramethyl-1,2,3,4-tetrahydronaphth-7-yl]2(E),4(E) heptadienoic acid], in series [3] (OPC culture), the “total cell number and pyknotic cells compared to controls” value is on record as “did not show any differences”. The “OPC differentiation into oligodendrocytes (EGFP positive cells) compared to negative control (DMSO)” value in [3] (OPCs from E14.5 PLP-EGFP mouse brains) is listed as “significant increase in OPC differentiation into oligodendrocytes; also recorded: dose dependent increase in the number of the EGFP positive cells”. The “potency at increasing myogenic differentiation (number of myocytes)” value in series [4] is “more potent at increasing differentiation than treatment with retinoic acid, bexarotene, or vehicle alone”. The “potency in activating RXR receptors rather than RAR receptors” value at RXRα is on record as > 1,000 fold. Further, in series [5], the “terminal body weights vs vehicle group” value was “no significant difference”. In addition, in series [6], the “myoblast differentiation (numbers of microfibers, differentiated cells)” value is on record as “increased numbers of microfibers as compared to cells treated with thyroxine or vehicle alone”. Also, in [1], the “inhibition of the increase in cardiac mass and wall thickness” value is “greater inhibition of the increase in cardiac mass and wall thickness as compared to bexarotene-treated animals”. Moreover, in series [1] (SHRs at 16 weeks of age), the “RXRα expression in cardiac muscle tissue (immunoblot)” value was “up-regulated more” and the “inhibition of cardiomyocyte cross-sectional area increases” value is “greater inhibition of cardiomyocyte cross-sectional area increases than treatment with bexarotene”. For the same molecule, the “number of myogenically differentiated cells (skeletal myocytes)” value in the series on Pluripotent P19 cells is given as “higher number of myogenically differentiated cells as compared to cells treated with retinoic acid, bexarotene, or vehicle alone”. In addition, in series [7], the “Iba1 staining (microglia/macrophages) in CC compared to vehicle” value is reported as “no difference” and the “number of SMI32 stained axonal ovoids in CC compared to Vehicle” value is listed as “trend towards decreased number of axonal ovoids but was not statistically different from the Vehicle”. Also, the “production of EGFP+ oligodendrocytes” value in series [2] is on record as “clear dose-responses in oligodendrocyte production”.
